smiles,measurement,setting,value
CN(C)NC(=O)CCC(=O)O,solubility (mole fraction),"in 2-butoxyethanol, 283.15 K",0.000247
same,solubility (mole fraction),"in 2-butoxyethanol, 288.15 K",0.000346
same,solubility (mole fraction),"in 2-butoxyethanol, 293.15 K",0.000471
same,solubility (mole fraction),"in 2-butoxyethanol, 298.15 K",0.000632
same,solubility (mole fraction),"in 2-butoxyethanol, 303.15 K",0.000905
same,solubility (mole fraction),"in 2-butoxyethanol, 308.15 K",0.00126
same,solubility (mole fraction),"in 2-butoxyethanol, 313.15 K",0.00162
same,solubility (mole fraction),"in 2-butoxyethanol, 318.15 K",0.00213
same,solubility (mole fraction),"in 2-butoxyethanol, 323.15 K",0.00278
same,solubility (mole fraction),"in 2-ethoxyethanol, 283.15 K",0.00176
same,solubility (mole fraction),"in 2-ethoxyethanol, 288.15 K",0.00228
same,solubility (mole fraction),"in 2-ethoxyethanol, 293.15 K",0.00291
same,solubility (mole fraction),"in 2-ethoxyethanol, 298.15 K",0.00382
same,solubility (mole fraction),"in 2-ethoxyethanol, 303.15 K",0.00492
same,solubility (mole fraction),"in 2-ethoxyethanol, 308.15 K",0.00621
same,solubility (mole fraction),"in 2-ethoxyethanol, 313.15 K",0.00767
same,solubility (mole fraction),"in 2-ethoxyethanol, 318.15 K",0.00954
same,solubility (mole fraction),"in 2-ethoxyethanol, 323.15 K",0.012
same,solubility (mole fraction),"in 2-methoxyethanol, 283.15 K",0.00398
same,solubility (mole fraction),"in 2-methoxyethanol, 288.15 K",0.00519
same,solubility (mole fraction),"in 2-methoxyethanol, 293.15 K",0.00634
same,solubility (mole fraction),"in 2-methoxyethanol, 298.15 K",0.00784
same,solubility (mole fraction),"in 2-methoxyethanol, 303.15 K",0.0096
same,solubility (mole fraction),"in 2-methoxyethanol, 308.15 K",0.0116
same,solubility (mole fraction),"in 2-methoxyethanol, 313.15 K",0.014
same,solubility (mole fraction),"in 2-methoxyethanol, 318.15 K",0.0169
same,solubility (mole fraction),"in 2-methoxyethanol, 323.15 K",0.0203
same,solubility (mole fraction),"in 2-propoxyethanol, 283.15 K",0.000405
same,solubility (mole fraction),"in 2-propoxyethanol, 288.15 K",0.000617
same,solubility (mole fraction),"in 2-propoxyethanol, 293.15 K",0.000794
same,solubility (mole fraction),"in 2-propoxyethanol, 298.15 K",0.00108
same,solubility (mole fraction),"in 2-propoxyethanol, 303.15 K",0.00144
same,solubility (mole fraction),"in 2-propoxyethanol, 308.15 K",0.00184
same,solubility (mole fraction),"in 2-propoxyethanol, 313.15 K",0.00233
same,solubility (mole fraction),"in 2-propoxyethanol, 318.15 K",0.00304
same,solubility (mole fraction),"in 2-propoxyethanol, 323.15 K",0.00393
same,solubility (mole fraction),"in DMF, 283.15 K",0.0207
same,solubility (mole fraction),"in DMF, 288.15 K",0.0245
same,solubility (mole fraction),"in DMF, 293.15 K",0.0293
same,solubility (mole fraction),"in DMF, 298.15 K",0.0329
same,solubility (mole fraction),"in DMF, 303.15 K",0.0388
same,solubility (mole fraction),"in DMF, 308.15 K",0.0449
same,solubility (mole fraction),"in DMF, 313.15 K",0.0503
same,solubility (mole fraction),"in DMF, 318.15 K",0.0568
same,solubility (mole fraction),"in DMF, 323.15 K",0.0645
same,solubility (mole fraction),"in NMP, 283.15 K",0.037
same,solubility (mole fraction),"in NMP, 288.15 K",0.042
same,solubility (mole fraction),"in NMP, 293.15 K",0.0481
same,solubility (mole fraction),"in NMP, 298.15 K",0.0552
same,solubility (mole fraction),"in NMP, 303.15 K",0.063
same,solubility (mole fraction),"in NMP, 308.15 K",0.0714
same,solubility (mole fraction),"in NMP, 313.15 K",0.0813
same,solubility (mole fraction),"in NMP, 318.15 K",0.09
same,solubility (mole fraction),"in NMP, 323.15 K",0.1
same,solubility (mole fraction),"in acetonitrile, 283.15 K",0.000172
same,solubility (mole fraction),"in acetonitrile, 288.15 K",0.000226
same,solubility (mole fraction),"in acetonitrile, 293.15 K",0.000296
same,solubility (mole fraction),"in acetonitrile, 298.15 K",0.000386
same,solubility (mole fraction),"in acetonitrile, 303.15 K",0.000503
same,solubility (mole fraction),"in acetonitrile, 308.15 K",0.000653
same,solubility (mole fraction),"in acetonitrile, 313.15 K",0.000846
same,solubility (mole fraction),"in acetonitrile, 318.15 K",0.00109
same,solubility (mole fraction),"in acetonitrile, 323.15 K",0.00141
same,solubility (mole fraction),"in ethanol, 283.15 K",0.00275
same,solubility (mole fraction),"in ethanol, 288.15 K",0.00354
same,solubility (mole fraction),"in ethanol, 293.15 K",0.00437
same,solubility (mole fraction),"in ethanol, 298.15 K",0.00551
same,solubility (mole fraction),"in ethanol, 303.15 K",0.0069
same,solubility (mole fraction),"in ethanol, 308.15 K",0.00848
same,solubility (mole fraction),"in ethanol, 313.15 K",0.0102
same,solubility (mole fraction),"in ethanol, 318.15 K",0.0128
same,solubility (mole fraction),"in ethanol, 323.15 K",0.0164
same,solubility (mole fraction),"in isopropanol, 283.15 K",0.000326
same,solubility (mole fraction),"in isopropanol, 288.15 K",0.00048
same,solubility (mole fraction),"in isopropanol, 293.15 K",0.000752
same,solubility (mole fraction),"in isopropanol, 298.15 K",0.0011
same,solubility (mole fraction),"in isopropanol, 303.15 K",0.00159
same,solubility (mole fraction),"in isopropanol, 308.15 K",0.0022
same,solubility (mole fraction),"in isopropanol, 313.15 K",0.00302
same,solubility (mole fraction),"in isopropanol, 318.15 K",0.00433
same,solubility (mole fraction),"in isopropanol, 323.15 K",0.00579
same,solubility (mole fraction),"in methanol, 283.15 K",0.00823
same,solubility (mole fraction),"in methanol, 288.15 K",0.0097
same,solubility (mole fraction),"in methanol, 293.15 K",0.0116
same,solubility (mole fraction),"in methanol, 298.15 K",0.014
same,solubility (mole fraction),"in methanol, 303.15 K",0.0167
same,solubility (mole fraction),"in methanol, 308.15 K",0.0196
same,solubility (mole fraction),"in methanol, 313.15 K",0.0227
same,solubility (mole fraction),"in methanol, 318.15 K",0.026
same,solubility (mole fraction),"in methanol, 323.15 K",0.0301
same,solubility (mole fraction),"in n-pentanol, 283.15 K",0.000149
same,solubility (mole fraction),"in n-pentanol, 288.15 K",0.000191
same,solubility (mole fraction),"in n-pentanol, 293.15 K",0.00026
same,solubility (mole fraction),"in n-pentanol, 298.15 K",0.000344
same,solubility (mole fraction),"in n-pentanol, 303.15 K",0.000477
same,solubility (mole fraction),"in n-pentanol, 308.15 K",0.000634
same,solubility (mole fraction),"in n-pentanol, 313.15 K",0.000821
same,solubility (mole fraction),"in n-pentanol, 318.15 K",0.00109
same,solubility (mole fraction),"in n-pentanol, 323.15 K",0.00145
same,solubility (mole fraction),"in n-propanol, 283.15 K",0.000944
same,solubility (mole fraction),"in n-propanol, 288.15 K",0.00121
same,solubility (mole fraction),"in n-propanol, 293.15 K",0.00161
same,solubility (mole fraction),"in n-propanol, 298.15 K",0.00217
same,solubility (mole fraction),"in n-propanol, 303.15 K",0.00285
same,solubility (mole fraction),"in n-propanol, 308.15 K",0.00367
same,solubility (mole fraction),"in n-propanol, 313.15 K",0.00471
same,solubility (mole fraction),"in n-propanol, 318.15 K",0.00615
same,solubility (mole fraction),"in n-propanol, 323.15 K",0.00768

# Reference: BigSolDB 2.1
